This note sets out measurements from patent publication US10526343B2, “Heterocyclic systems and pharmaceutical applications thereof” (University of Sharjah, priority 2018, dated 2020).

Values after ≈ are worked out from the molar mass of the structure shown.

Assay type in all cases: cell-based
The subject of test [1] is Staphylococcus aureus (ATCC 25923). Kind of test: Cell viability assay (resazurin) screening for antibacterial activity. Also on record: key: Positive: A positive result indicates antibacterial activity expressed as growth inhibition; Negative: a negative result indicates no antibacterial activity expressed as bacterial growth at the tested concentration. The settings on record: single high concentration of 1 mg/mL. (The colour change of resazurin is a common sign of viable cells or microbes.)

Test [2] concerns Enterococcus faecalis (ATCC 29212). The test is described as above. Also on record: key: Positive: A positive result indicates antibacterial activity expressed as growth inhibition; Negative: a negative result indicates no antibacterial activity expressed as bacterial growth at the tested concentration. The note with it: single high concentration of 1 mg/mL.
The test system of test [3] is Bacillus subtilis (environmental isolate). Described as above. The note with it: single high concentration of 1 mg/mL. Also on record: key: Positive: A positive result indicates antibacterial activity expressed as growth inhibition; Negative: a negative result indicates no antibacterial activity expressed as bacterial growth at the tested concentration.
In test [4] the test system is Escherichia coli (ATCC 25922). The test is described as above. Also on record: key: Positive: A positive result indicates antibacterial activity expressed as growth inhibition; Negative: a negative result indicates no antibacterial activity expressed as bacterial growth at the tested concentration. The settings on record: single high concentration of 1 mg/mL.
Test [5] deals with Pseudomonas aeruginosa (ATCC 27853). The description is as above. Also on record: key: Positive: A positive result indicates antibacterial activity expressed as growth inhibition; Negative: a negative result indicates no antibacterial activity expressed as bacterial growth at the tested concentration. The note with it: single high concentration of 1 mg/mL.
For test [6], the system named is S. aureus (ATCC 25923). Kind of test: MIC by broth microdilution. The settings on record: Staphylococcus aureus, ATCC25923. How it is done: (§1) Bacteria of the genus Staphylococcus were selected for MIC investigation due to its clinical importance. Compounds showing activity against S. aureus (ATCC 25923) were tested against 10 multidrug-resistant strains of Staphylococcus species, including: clinical isolates methicillin-resistant Staphylococcus aureus (MRSA) strains MRSA-1, MRSA-2, and MRSA-3, and environmental isolates S. saprophyticus (strains UDH-1, UDH-2, UDH-3 and UDH-4), S. haemolyticus (strains UDH-6 and UDH-7), and S. epidermidis strain UDH-5.
(§2) A broth microdilution method was used to measure MIC according to the Clinical and Laboratory Standards Institute guidelines. Two-fold serial dilutions of the test compound (8 concentrations ranged between 100-0.78 μg/mL) were tested. Two reference antibiotics were used as quality controls (ciprofloxacin and amikacin). In each experiment, solvent (DMSO) was used as a negative control, un-treated control (composing of bacteria in Mueller-Hinton broth) was used as a growth control, blank (culture media alone) was used as sterility control. The 96-well microplate with the test compounds was incubated for 20 hours at 37° C. Turbidity in wells indicated bacterial growth. […] For the definite determination of MIC, CellTiter-Blue® Cell Viability Assay (Promega, USA) was used (as above). The MIC was defined as the lowest compound concentration that prevented the color change of the Cell Viability solution (absence of bacterial growth; thus, suspension remained blue in color). For the definite determination of MIC, CellTiter-Blue® Cell Viability Assay (Promega, USA) was used (as above). To each well of the 96-well microplate, 20 μL of the Cell Viability Assay solution was added to the overnight (20 hours culture) and incubated at 37° C. for 4 hours. After the end of the incubation, pink and blue colors were used to differentiate viable from dead bacterial suspensions, respectively. The MIC was defined as the lowest compound concentration that prevented the color change.
In general terms: Dilution methods test growth across graded concentrations, often in twofold steps.

The test system of test [7] is MRSA-1 (clinical isolate, methicillin-resistant Staphylococcus aureus). The test is described as follows: MIC by broth microdilution. The note with it: Staphylococcus aureus, MRSA; clinical isolate. How it is done: (§3) Bacteria of the genus Staphylococcus were selected for MIC investigation due to its clinical importance.
as §2, with “Two reference antibiotics were used as quality controls (ciprofloxacin and amikacin).” left out

Test [8] relates to MRSA-2 (clinical isolate, methicillin-resistant Staphylococcus aureus). The test is described as follows: MIC by broth microdilution. The method, then:
as §3
as §2, with “Two reference antibiotics were used as quality controls (ciprofloxacin and amikacin).” left out

Test [9] has as its system MRSA-3 (clinical isolate, methicillin-resistant Staphylococcus aureus). Kind of test: MIC by broth microdilution. How it is done: as §3
as §2, with “Two reference antibiotics were used as quality controls (ciprofloxacin and amikacin).” left out

Test [10] has as its system UDH-1 (environmental isolate, S. saprophyticus). Kind of test: MIC by broth microdilution. The settings on record: for MIC: Staphylococcus saprophyticus, environmental isolate; for times lower than MIC of ciprofloxacin: UDH-1. How it is done: as §1
(§4) All these strains were resistant to at least three antibiotics from different classes, as confirmed by a disk diffusion assay.
as §2

Test [11] has as its system UDH-2 (environmental isolate, S. saprophyticus). Kind of test: MIC by broth microdilution. The note with it: Staphylococcus saprophyticus. How it is done:
as §1, §4, §2

Test [12] deals with UDH-3 (environmental isolate, S. saprophyticus). Kind of test: MIC by broth microdilution. The settings on record: for MIC: Staphylococcus saprophyticus, environmental isolate. How it is done: as §1, §4, §2
The test system of test [13] is UDH-4 (environmental isolate, S. saprophyticus). The test is described as follows: MIC by broth microdilution. The settings on record: Staphylococcus saprophyticus. The method, then: as §1, §4, §2
Test [14] deals with UDH-5 (environmental isolate, S. epidermidis). The test is described as follows: MIC by broth microdilution. The note with it: Staphylococcus epidermidis. How it is done:
as §1, §4, §2

Test [15] relates to UDH-6 (environmental isolate, S. haemolyticus). Kind of test: MIC by broth microdilution. The note with it: Staphylococcus haemolyticus; environmental isolate. The method, then:
as §1, §4, §2

In test [16] the test system is UDH-7 (environmental isolate, S. haemolyticus). The test is described as follows: MIC by broth microdilution. The settings on record: Staphylococcus haemolyticus; environmental isolate. The method, then: as §1, §4, §2

As a reminder, the MIC is the lowest concentration that inhibits growth of the organism. For the compound `COC(=O)CC1COc2c(cc3c4c2CCCN4CCC3)-c2c(NC(C)(C)C)n3c(-c4ccccc4)c(-c4ccccc4)sc3[n+]21` (stereo not shown) [Compound 2a], the “antibacterial activity, Staphylococcus aureus” value in test [1] was “positive antibacterial activities”. For the same compound, the “antibacterial activity, Enterococcus faecalis” value in test [2] was “Positive”. The “antibacterial activity, Bacillus subtilis” value in [3] is recorded as “Positive”. Also, in test [4], the “antibacterial activity, Escherichia coli” value was “Negative”. For the same compound, in test [5], the “antibacterial activity, Pseudomonas aeruginosa” value is on record as “Negative”. Further, the minimum inhibitory concentration (MIC) in [6] came out at 6.25 µg/mL; in [7], 6.25 µg/mL; in test [8], 3.12 µg/mL; in test [9], 3.12 µg/mL; in test [10] it was 6.25 µg/mL; in [11], 6.25 µg/mL. Moreover, the MIC in [12] turned out to be 3.12 µg/mL; in test [13], 6.25 µg/mL; in [14], 1.56 µg/mL; in [15] it was 6.25 µg/mL; in test [16] it was 12.5 µg/mL. Besides, the figures for the “times lower than MIC of ciprofloxacin” value in [10] and in test [12] (UDH-3) were “approximately 10 times” and “approximately 20 times”, respectively.
Regarding `COC(=O)CC1COc2c(cc3c4c2CCCN4CCC3)-c2c(NC(C)(C)C)n3c(-c4ccc(NC(C)=O)cc4)csc3[n+]21` (stereo not shown) [Compound 1w], the “antibacterial activity, Staphylococcus aureus” value in [1] is on record as “Positive”. Further, in test [2], the “antibacterial activity, Enterococcus faecalis” value was “Positive”. Besides, the “antibacterial activity, Bacillus subtilis” value in [3] was “Positive”. Further, the “antibacterial activity, Escherichia coli” value in [4] was “Negative”. Also, the “antibacterial activity, Pseudomonas aeruginosa” value in test [5] is given as “Negative”. Also, the MIC in [6] is 6.25 µg/mL; in test [7], 12.5 µg/mL; in [8] it was 12.5 µg/mL; in [9] it was 12.5 µg/mL; in test [10], 12.5 µg/mL; in test [11], 25 µg/mL. The MIC was determined as 12.5 µg/mL in test [12]; 12.5 µg/mL in test [13]; 6.25 µg/mL in [14]; 50 µg/mL in [15]; 50 µg/mL in test [16].
Regarding `COC(=O)CC1COc2c(cc3c4c2CCCN4CCC3)-c2c(NC(C)(C)C)n3c(-c4ccc(F)cc4)c(C)sc3[n+]21` (stereo not shown) [Compound 1n], the “antibacterial activity, Staphylococcus aureus” value in [1] is “Positive”. Besides, the “antibacterial activity, Enterococcus faecalis” value in [2] is recorded as “Positive”. In test [3], the “antibacterial activity, Bacillus subtilis” value is “Positive”. In [4], the “antibacterial activity, Escherichia coli” value was “Negative”. Besides, the “antibacterial activity, Pseudomonas aeruginosa” value in test [5] was “Negative”. Further, the MIC in test [6] amounted to 6.25 µg/mL; in [7], 12.5 µg/mL; in [8], 12.5 µg/mL; in [9] it was 12.5 µg/mL; in [10], 12.5 µg/mL; in test [11] it was 12.5 µg/mL. Besides, the MIC in [12] was 12.5 µg/mL; in test [13] it was 12.5 µg/mL; in test [14], 6.25 µg/mL; in test [15], 25 µg/mL; in test [16], 25 µg/mL.
For `NCC[C@H](O)C(=O)N[C@@H]1C[C@H](N)[C@@H](O[C@H]2O[C@H](CN)[C@@H](O)[C@H](O)[C@H]2O)[C@H](O)[C@H]1O[C@H]1O[C@H](CO)[C@@H](O)[C@H](N)[C@H]1O` [Amikacin, amikacin, reference compound], the MIC in test [6] is 4 µg/mL (≈ 6.83 µM); in [7] it was 16 µg/mL (≈ 27.3 µM); in [8], 8 µg/mL (≈ 13.7 µM); in [9] it was 2 µg/mL (≈ 3.42 µM); in test [10], 8 µg/mL (≈ 13.7 µM); in test [11], 0.25 µg/mL (≈ 0.427 µM). Besides, the MIC is 0.5 µg/mL (≈ 0.854 µM) in test [12]; < 0.25 µg/mL in [13]; < 0.25 µg/mL in test [14]; 4 µg/mL (≈ 6.83 µM) in [15]; 4 µg/mL (≈ 6.83 µM) in [16].
On to `COC(=O)CC1COc2c(cc3c4c2CCCN4CCC3)-c2c(NC(C)(C)C)n3c(-c4cccc5c4OCCO5)csc3[n+]21` (stereo not shown) [Compound 1p], for which the “antibacterial activity, Staphylococcus aureus” value in test [1] is “Positive”. Also, the “antibacterial activity, Enterococcus faecalis” value in test [2] is recorded as “Positive”. In [3], the “antibacterial activity, Bacillus subtilis” value is “Positive”. Also, the “antibacterial activity, Escherichia coli” value in [4] is recorded as “Negative”. The “antibacterial activity, Pseudomonas aeruginosa” value in test [5] is reported as “Negative”. Moreover, the MIC is 3.12 µg/mL in test [6]; 6.25 µg/mL in test [7]; 6.25 µg/mL in test [8]; 6.25 µg/mL in test [9]; 12.5 µg/mL in test [10]; 25 µg/mL in test [11]. For the same compound, the minimal inhibitory concentration (MIC) was found to be 6.25 µg/mL in test [12]; 6.25 µg/mL in [13]; 1.56 µg/mL in test [14]; 12.5 µg/mL in [15]; 12.5 µg/mL in [16].
In the case of `COC(=O)CC1COc2c(cc3c4c2CCCN4CCC3)-c2c(NC(C)(C)C)n3c(-c4ccc(F)c(F)c4)csc3[n+]21` (stereo not shown) [Compound 1s], the “antibacterial activity, Staphylococcus aureus” value in [1] is on record as “Positive”. Further, in [2], the “antibacterial activity, Enterococcus faecalis” value was “Positive”. The “antibacterial activity, Bacillus subtilis” value in test [3] was “Positive”. In addition, in [4], the “antibacterial activity, Escherichia coli” value is “Negative”. The “antibacterial activity, Pseudomonas aeruginosa” value in [5] is “Negative”. For the same compound, the MIC in test [6] amounted to 6.25 µg/mL; in test [7], 6.25 µg/mL; in [8], 6.25 µg/mL; in test [9], 6.25 µg/mL; in [10], 12.5 µg/mL; in test [11] it was 25 µg/mL. In addition, the MIC in test [12] is 12.5 µg/mL; in test [13] it was 6.25 µg/mL; in test [14] it was 3.12 µg/mL; in test [15] it was 25 µg/mL; in [16], 25 µg/mL.
As for `COC(=O)CC1COc2c(cc3c4c2CCCN4CCC3)-c2c(NC(C)(C)C)n3c(-c4ccc(Cl)cc4Cl)c(C)sc3[n+]21` (stereo not shown) [Compound 1x], in test [1], the “antibacterial activity, Staphylococcus aureus” value is “Positive”. In addition, the “antibacterial activity, Enterococcus faecalis” value in test [2] is listed as “Positive”. For the same compound, in test [3], the “antibacterial activity, Bacillus subtilis” value was “Positive”. For the same compound, in [5], the “antibacterial activity, Pseudomonas aeruginosa” value is “Negative”. The minimum inhibitory concentration (MIC) in [6] was 3.12 µg/mL; in [7], 6.25 µg/mL; in [8] it was 6.25 µg/mL; in [9], 6.25 µg/mL; in test [10], 6.25 µg/mL; in test [11], 6.25 µg/mL. In addition, the MIC in test [12] was 6.25 µg/mL; in [13], 3.12 µg/mL; in [14], 1.56 µg/mL; in [15], 6.25 µg/mL; in test [16] it was 12.5 µg/mL. The “times lower than MIC of ciprofloxacin” value in test [10] is “approximately 10 times”.
